The results in this text go back to patent US5714501A, “Piperidine derivatives” (priority 1995, dated 1998).

Like-named read-outs stand apart in the source and are kept apart here.

For assay [1], the target named is T1, histamine H1 receptors (Cavia porcellus, UniProt P31389).
T1 construct: guinea-pig cerebellum membrane proteins; from tissue; host or cells: guinea-pig cerebellum membranes
In words: Inhibition of histamine-induced contraction of isolated guinea-pig ileum. The following applies: 30 min incubation with compound, 37° C.; for Kb: read-out: activity on histamine H1 receptors, pA2 (functional) (converted). How it is done:
(§1) (1) Inhibition of histamine-or LTD4 -induced contraction
(§2) The first three dose-response experiments are performed by adding histamine or leukotriene D4 cumulatively to the organ bath. After adequate washing, the ileal strip is incubated with the testing compound for 30 min. The dose-response experiment is then conducted again. The dissociation constant (Kb) of the receptor-antagonist complex is used as the parameter to indicate the potency of the testing compound and is calculated according to the Cheng-Prusoff equation.

Assay [2] concerns the target T1, histamine H1 receptors. As to the kind of experiment: Inhibition of [3H]mepyramine binding to guinea-pig cerebellum membranes (and saturation experiment). The following applies: 0.5 nM [3H]mepyramine, pH 7.5, 37° C., 30 min. The method, then: The method is based on that described previously. […] The reaction was stopped by the addition of 5 ml ice-cold phosphate buffer and followed by immediate filtration through Whatman GF/C filters. The filters were washed twice with about 20 ml cold buffer. The retained radioactivity was determined by a liquid scintillation counter after addition of 5 ml scintillation liquid.
In the saturation experiment, 10^-4 MR(-)dimethindene was used to define the non-specific binding.

Assay [3] addresses T2, leukotriene D4 receptors (Cavia porcellus, UniProt Q2NNR5).
T2 sequence (Q2NNR5 1-340): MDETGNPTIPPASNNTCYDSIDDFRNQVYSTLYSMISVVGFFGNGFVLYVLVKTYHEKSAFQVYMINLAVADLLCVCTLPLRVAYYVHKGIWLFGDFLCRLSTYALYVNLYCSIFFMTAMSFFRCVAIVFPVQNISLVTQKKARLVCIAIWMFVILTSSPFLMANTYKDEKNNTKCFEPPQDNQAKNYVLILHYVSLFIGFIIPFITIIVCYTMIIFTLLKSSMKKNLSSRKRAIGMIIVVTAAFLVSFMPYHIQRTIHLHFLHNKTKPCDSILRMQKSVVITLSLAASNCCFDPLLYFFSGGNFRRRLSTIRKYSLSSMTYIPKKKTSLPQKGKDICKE
In words: Inhibition of [3H]LTD4 binding to guinea-pig lung membranes (and saturation experiment). More on the design: guinea-pig lung membrane proteins; from tissue; host or cells: guinea-pig lung membranes. The method, then: The method is a modification of that described in the literature*. […] The piperazine-N,N'-bis(2-ethanesulfonic)acid buffer contains 10 mM CaCl2, 10 mM MgCl2, 50 mM NaCl, 2 mM cysteine and 2 mM glycine. The reaction was terminated by the addition of 5 ml ice-cold tris-HCl/NaClbuffer (10 mM/, pH 7.5). The mixture was immediately filtered under vacuum (Whatman GF/C filters) and the filters was washed once with 20 ml ice-cold buffer. The retained radioactivity was determined by a liquid scintillation counter.
In the saturation experiment, 2 μM LTD4 was used to define the non-specific binding.

Assay [4] concerns the target T2, leukotriene D4 receptors. In words: Inhibition of LTD4-induced contraction of isolated guinea-pig ileum. More on the design: A piece of ileum (about 2 cm length) isolated from guinea-pigs; from tissue; host or cells: guinea-pig ileum. How it is done: as §1, §2
Setting [5] is: 0.2 nM [3H]-LTD4, guinea-pig lung membranes, pH 7.5, 22° C., 30 min.
[6] abbreviates: guinea-pig ileum, LTD4-induced contraction, 30 min incubation with compound, 37° C., read-out: activity on leukotriene D4 receptors, pA2 (functional) (converted).

T1 sequence (P31389 whole entry): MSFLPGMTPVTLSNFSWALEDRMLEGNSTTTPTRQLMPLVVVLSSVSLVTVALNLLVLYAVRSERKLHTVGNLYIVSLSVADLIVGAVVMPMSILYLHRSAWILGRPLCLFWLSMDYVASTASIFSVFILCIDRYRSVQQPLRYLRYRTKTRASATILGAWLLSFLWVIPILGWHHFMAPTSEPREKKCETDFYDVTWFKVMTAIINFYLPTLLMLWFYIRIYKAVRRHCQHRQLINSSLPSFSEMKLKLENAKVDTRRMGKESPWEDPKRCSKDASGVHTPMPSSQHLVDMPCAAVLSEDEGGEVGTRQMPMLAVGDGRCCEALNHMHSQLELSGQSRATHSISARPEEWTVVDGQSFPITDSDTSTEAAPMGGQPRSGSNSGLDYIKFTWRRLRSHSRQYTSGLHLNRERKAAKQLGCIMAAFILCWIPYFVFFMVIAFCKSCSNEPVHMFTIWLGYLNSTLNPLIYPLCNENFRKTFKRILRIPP

As to `O=C(N[C@@H](CN1CCC(=C2c3ccccc3CCc3ccccc32)CC1)C(=O)O)OCc1ccccc1` [Example 7, (S)-2-Benzyloxycarbonylamino-3-[4-(10,11-dihydro-5H-dibenzo[a,d]cyclohepten-5-ylidene)-piperidin-l-yl]propionic acid], the Kb is 0.0331 µM on histamine H1 receptors [1] and 1.12 µM at leukotriene D4 receptors [4] (setting [6]). The figures for the Kd at histamine H1 receptors [2] and on leukotriene D4 receptors [3] (setting [5]) were 0.871 µM and 6.8 µM, respectively.

Regarding `CC(C)(C)c1ccc(C(O)CCCN2CCC(C(O)(c3ccccc3)c3ccccc3)CC2)cc1` (stereo not shown) [terfenadine, reference compound], the “activity on leukotriene D4 receptors, KD (binding)” value on leukotriene D4 receptors [3] (setting [5]) is reported as “not active”. For the same compound, the “activity on leukotriene D4 receptors, pA2 (functional)” value at leukotriene D4 receptors [4] (guinea-pig ileum, LTD4-induced contraction, 30 min incubation with compound, 37° C.) was “not active”.

In the case of `CCCc1c(OCC(O)COc2ccc3c(=O)cc(C(=O)O)oc3c2CCC)ccc(C(C)=O)c1O` (stereo not shown) [FPL55712, reference compound], on histamine H1 receptors [1], the “activity on histamine H1 receptors, pA2 (functional)” value is recorded as “not active”. Moreover, at histamine H1 receptors [2], the “activity on histamine H1 receptors, KD (binding)” value was “not active”. Besides, the Kb on leukotriene D4 receptors [4] was 0.12 µM.

Regarding `O=C(N[C@H](CN1CCC(=C2c3ccccc3CCc3ccccc32)CC1)C(=O)O)OCc1ccccc1` [Example 8, (R)-2-Benzyloxycarbonylamino-3-[4-(10,11-dihydro-5H-dibenzo[a,d]-cyclohepten-5-ylidene)piperidin-1-yl]propionic acid], the Kb on histamine H1 receptors [1] is 0.01 µM; on leukotriene D4 receptors [4] (setting [6]), 0.141 µM. The values for the Kd on histamine H1 receptors [2] and at leukotriene D4 receptors [3] (setting [5]) were 0.412 µM and 1.55 µM, respectively.

Regarding `O=C(N[C@@H](CN1CCC(=C2c3ccccc3C=Cc3ccccc32)CC1)C(=O)O)OCc1ccccc1` [Example 6, (S)-2-Benzyloxycarbonylamino-3-[4-(5H-dibenzo[a,d]cyclohepten-5-ylidene)piperidin-1-yl]propionic acid], at histamine H1 receptors [1], the Kb was 0.0427 µM. This compound registered a Kd at histamine H1 receptors [2] of 0.147 µM. At leukotriene D4 receptors [3] (drug at the concentration of 10^-5 M, guinea-pig receptor preparations), this compound returned an inhibition at 10 µM of 28%.

By Kd is commonly meant a measure of binding affinity in units of concentration. Lower therefore signals a tighter complex. By inhibition is commonly meant the percentage by which the read-out fell short of the control. Lower therefore signals a response near the control.
